Results taken from PubChem BioAssay (NCI).
“And” between values parts separate entries of the source, which are not always exact repeats. Equal entries are not always repeated.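 Test compounds were applied to cells in 96-well plates for 48 hours at 5 doses. GI50 = concentration required for 50% inhibition of growth. TGI: concentration producing complete growth inhibition.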

Key:
Assay in all cases: DTP human tumour cell line panel, 48 h
RXF 393 renal = tested on: RXF 393 renal
HCC-2998 colon = tested on: HCC-2998 colon
NCI-H226 lung = tested on: NCI-H226 lung
SF-295 CNS = tested on: SF-295 CNS
HOP-92 NSCLC = tested on: HOP-92 NSCLC
T-47D breast = tested on: T-47D breast
SNB-19 CNS = tested on: SNB-19 CNS
OVCAR-3 ovarian = tested on: OVCAR-3 ovarian
OVCAR-4 ovarian = tested on: OVCAR-4 ovarian
HOP-62 NSCLC = tested on: HOP-62 NSCLC
A498 renal = tested on: A498 renal

Row | Structure (SMILES) | TGI (RXF 393 renal) | TGI (HCC-2998 colon) | TGI (NCI-H226 lung) | TGI (SF-295 CNS) | TGI (HOP-92 NSCLC) | TGI (T-47D breast) | TGI (SNB-19 CNS) | TGI (OVCAR-3 ovarian) | TGI (OVCAR-4 ovarian) | TGI (HOP-62 NSCLC) | TGI (A498 renal) | GI50 (RXF 393 renal) | GI50 (HCC-2998 colon) | GI50 (NCI-H226 lung) | GI50 (SF-295 CNS) | GI50 (HOP-92 NSCLC) | GI50 (A498 renal) | GI50 (OVCAR-3 ovarian)
1 | N#Cc1c(-c2cccc(Br)c2)cc(-c2ccc(Cl)cc2)nc1N | 34.6 µM | 34 µM | 38.1 µM | 35.5 µM | 32.4 µM | > 100 µM | 40.1 µM | 77.3 µM | 13.5 µM | 79.1 µM |  |  |  |  |  |  |  | 
2 | Nc1ccc2c(c1)N(C(=O)CCCC(=O)N1CC(CCl)c3ccc(N)cc31)CC2CCl (stereo not given) | 0.582 µM | > 50 µM | > 50 µM | > 50 µM | > 50 µM |  | 11.3 µM | > 50 µM | > 11.1 µM | 8.94 µM | 3.47 µM |  |  |  |  |  |  | 
3 | CC[C@@]1(O)C(=O)OCc2c1cc1n(c2=O)Cc2c-1nc1ccccc1c2C=Nc1ccc(N[C@@H]2c3cc4c(cc3[C@@H](c3cc(OC)c(O)c(OC)c3)[C@H]3C(=O)OC[C@@H]32)OCO4)cc1 | 2.25 µM and 0.546 µM |  | 2.71 µM and 0.308 µM | 8.02 µM and 15.9 µM |  |  | > 100 µM | 6.01 µM and 0.74 µM | > 56 µM |  | 1.72 µM and 0.261 µM | 0.127 µM and 0.0526 µM | 0.369 µM and 0.131 µM | 0.0483 µM and 0.0179 µM | 0.0619 µM and 0.0503 µM | 0.0258 µM | 0.21 µM and 0.0448 µM | 0.557 µM and 0.185 µM
4 | COc1ccc(-c2c(C#N)c(N)n(C3OCC(O)C(O)C3O)c(=S)c2C#N)cc1 (stereo not given) | > 100 µM | > 100 µM | > 100 µM | > 100 µM |  | > 100 µM | > 100 µM | > 100 µM |  | > 100 µM | > 100 µM |  |  |  |  |  |  | 
5 | C=C[C@@]1(C)CC(=O)[C@]2(O)[C@@]3(C)[C@@H](OC(C)=O)CCC(C)(C)[C@@H]3[C@H](O)[C@H](OC(C)=O)[C@@]2(C)O1 |  | > 100 µM | > 100 µM | > 100 µM | > 100 µM | > 100 µM | > 100 µM | > 100 µM | > 100 µM | > 100 µM | > 100 µM |  |  |  |  |  |  | 
6 | C[C@@H]1C(=O)O[C@@H]2C[C@@]1(C)[C@@H]1C(=O)C3(O)OC14C2(C)OC(=O)[C@@]4(O)CCC1C3C(O)C=C2CC=CC(=O)[C@@]21C (stereo not given in full) | 32.8 µM | > 100 µM |  | 83.7 µM |  | > 100 µM | 37.8 µM |  | > 100 µM | > 100 µM |  |  |  |  |  |  |  | 
7 | Cc1ccc(/C(O)=C/c2nc3ccccc3nc2NC23CC4CC(CC(C4)C2)C3)cc1 |  | > 10 µM |  | > 10 µM | > 10 µM | > 10 µM | > 10 µM | > 10 µM | > 10 µM | > 10 µM |  |  |  |  |  |  |  | 
8 | Cc1ccc(-n2nnc3c(NNc4ccccc4)n[nH]c(=O)c32)cc1 |  | > 100 µM | > 100 µM | > 100 µM | > 100 µM |  | > 100 µM |  | > 100 µM | > 100 µM |  |  |  |  |  |  |  | 
9 | CC1=CC(=C(c2ccc(N)c(C)c2)c2ccc(N)c(C)c2)C=CC1=N | 51.2 µM | 14.4 µM | 33.6 µM | 11.7 µM | 14.2 µM |  | 15.8 µM | 16.7 µM | 52.8 µM | 10.4 µM | > 100 µM |  |  |  |  |  |  | 
10 | N#Cc1cccc(Nc2ccccc2SSc2ccccc2Nc2cccc(C#N)c2)c1 |  | > 21.5 µM | 18.3 µM | > 21.5 µM | 19 µM | > 21.5 µM | 19.5 µM | > 21.5 µM | > 21.5 µM | > 21.5 µM |  |  |  |  |  |  |  | 
11 | CC[N+](C)(C)c1ccc(C(=C2C=CC(=[N+](C)C)C=C2)c2ccc(N(C)C)cc2)cc1 | > 100 µM | 32.3 µM | 52.8 µM | 70.1 µM | 54.8 µM |  |  | 22.5 µM | 38.3 µM | 41.2 µM | 48.4 µM |  |  |  |  |  |  | 
12 | CCOC(=O)C12C3CCC1C2C(=O)C3 (stereo not given) | > 100 µM | > 100 µM | > 100 µM | > 100 µM |  |  | > 100 µM | > 100 µM | > 100 µM | > 100 µM |  |  |  |  |  |  |  | 
13 | CCCC[P+](CCCC)(CCCC)C(C(=O)OC)C(C(=O)OC)=C1SC(C(=O)OC)=C(C(=O)OC)S1 (stereo not given) | > 100 µM |  | > 100 µM | > 100 µM | > 100 µM | > 100 µM | > 100 µM | > 100 µM | > 100 µM | > 100 µM |  |  |  |  |  |  |  | 
14 | CCCCCCCCCCCCOCCCCCCCCC/C=C/c1ccc2c(c1)OCCOCCOCCOCCO2 | 36.4 µM | 44.7 µM | 36.7 µM | 34.2 µM | 26.5 µM | 48.2 µM | 77.6 µM | 40.6 µM | 45.1 µM | 51.4 µM |  |  |  |  |  |  |  | 
15 | CC12CC(=O)OC(Cc3ccccc31)O2 (stereo not given) | > 100 µM | > 100 µM | > 100 µM | > 100 µM | > 100 µM |  | > 100 µM | > 100 µM |  | > 100 µM |  |  |  |  |  |  |  | 
16 | COC1/C=C/C(C)C(C(C)C(OC)C(C)CCC(=O)C(C)C(CC(=O)O)OC)OC(=O)/C=C/C=C(\C)CC(OC)C(OC)C2=CC(=O)O[C@@H](C(C)C(OC)CC(OC)/C=C/C(C)C(O)C1)[C@H]2O (stereo not given in full) |  | > 1.07 µM | 0.127 µM | 0.261 µM | 0.0917 µM | 0.981 µM | > 1.07 µM | > 1.07 µM | > 1.07 µM | 0.468 µM | 0.365 µM |  |  |  |  |  |  | 
17 | O=c1ccc(-c2ccc(-n3ccnc3)cc2)nn1CCO | > 100 µM | > 100 µM |  | > 100 µM | > 100 µM |  | > 100 µM | > 100 µM | > 100 µM | > 100 µM | > 100 µM |  |  |  |  |  |  | 
18 | CCOC(=O)/C(=C\NC[C@@H](C)O)c1nc2ccccc2[nH]1 | > 100 µM | > 100 µM |  | > 100 µM | > 100 µM |  | > 100 µM | > 100 µM | > 100 µM | > 100 µM | > 100 µM |  |  |  |  |  |  | 
19 | O=c1[nH]nc(Cc2ccccc2)n1N=C1CCCCC1 | > 100 µM |  | > 100 µM | > 100 µM | > 100 µM | > 100 µM | > 100 µM | > 100 µM | > 100 µM | > 100 µM | > 100 µM |  |  |  |  |  |  | 
20 | CCCCn1c(C)c(C)c2c1NN=C(C#N)S2(=O)=O |  | > 100 µM |  |  |  | > 100 µM | > 100 µM | > 100 µM | > 100 µM | > 100 µM |  |  |  |  |  |  |  | 
21 | O=c1oc2ccccc2cc1-c1nc2ccccc2c(=O)[nH]1 | > 100 µM | > 100 µM | > 100 µM | > 100 µM | > 100 µM | > 100 µM | > 100 µM |  | > 100 µM | > 100 µM |  |  |  |  |  |  |  | 
22 | CC(C)C(=O)CC(Sc1ccc(N)cc1)c1ccccc1 (stereo not given) | 89.1 µM | 57.5 µM | > 100 µM | > 100 µM |  | 71.6 µM | > 100 µM | 67.8 µM |  | 83.9 µM | 89.1 µM |  |  |  |  |  |  | 
